# According to US6916446B1, “Bioreactor method, apparatus and product thereby” (The United States of America as represented by the …, priority 2002, dated 2005):
# Several values for one entry are separate records, joined by “and”; a condition that tells them apart may be missing. Identical values can stand only once. Like-named read-outs stand apart in the source and are kept apart here.
# Columns and labels:
# [1] = tested on: strain IMB-1; test: Growth of strain IMB-1 on substrates in mineral salts medium (Balch tubes)
# [2] = tested on: strain IMB-1; test: 14C-MeBr oxidation assay on washed cell suspensions; format: cell-based, strain IMB-1 (ATCC 202197); conditions: for rate of MeBr oxidation, normalized for cell densities: cells grown on methylamine; for MeBr oxidized: cells grown on the substrate indicated
# [3] = tested on: strain IMB-1; test: Batch oxidation of MeBr in bottles containing cell suspensions of strain IMB-1; format: cell-based, strain IMB-1 (ATCC 202197); parameters: MeBr Oxidation Rate per Cell: unit not given here; conditions: for CO2 Production Rate: corrected for respiration
# [4] = tested on: strain IMB-1; test: Closed-system re-circulating bioreactor with washed cell suspension of strain IMB-1; format: cell-based, strain IMB-1 (ATCC 202197)
# Protocol: Procedures for forming the methylotrophic bacterium 18 within the bioreactor 10 include, for example and without limitation, strain IMB-1 being grown aerobically in batch mode using pulsed additions of MeBr for use as an inoculum for the bioreactor. Additions of MeBr from about 0.01 to about 0.1 g were made approximately daily for several weeks. Cells (1 L) were grown to elevated density (approximately 1.5×10^8 cells/cm^3) in stoppered, 2-L flasks with rotary shaking. Growth occurred in mineral salts media containing mono- and dibasic phosphate (ΣPO4^31 '=1.4 mM) as well as sulfate and trace minerals (see e.g. Schaefer, J. K. and R. S. Oremland, Oxidation of Methyl Halides by the Facultative Methylotroph Strain IMB-1. Appl. Environ. Microbiol. 65 (1999): pp 5035-5041) the disclosure of which is hereby incorporated by reference. Media concentrations were tripled in order to provide additional nutrients and buffer capacity. Cells were grown at about 28° C. Cells were washed and re-suspended to 0.5 L in fresh media and transferred to the gas-washing bottle of the bioreactor having an initial cell density approximately equal to 3×10^8 cells/cm^3. Once the methylotrophic bacterium 18 constitutes part of the biofilter 16, the methyl halide is pumped from the reservoir 14 to the biofilter 16 for direct oxidation.
# The biofilter 16 includes a mass of methylotrophic bacteria 18 within a container for bio-degradation of the methyl halides 30. The biofilter 16 constitutes the active surface of the bioreactor 10. The initial cell density was 3×10^8 cells/cm^3. The peristaltic pump 12 was used to circulate the methyl halide 30 gas in this system at a flow rate of 0.2 liter/min through inert rubber tubing (Pharmed), manufactured by Cole Parmer of Vernon Hills, Ill., and having 0.4 cm I.D. Stainless steel tubing (0.4 cm I.D.) was used to connect the components of the bioreactor 10. Methane (CH4) was added (3.2 g/m^3) to serve as a control and an internal standard.
# A closed-system bioreactor was built using the general design of FIG. 1 and employed for testing on a laboratory bench. The bioreactor was started with 0.5 L of growing culture of methylotrophic bacteria strain IMB-1 and removed MeBr at fumigation concentrations (>17 g/m^3) from re-circulating air. Strain IMB-1 grew to high cell densities (5×10^9 cells/cm^3) in the bioreactor within several days using pulsed additions of MeBr as the sole carbon and energy source. The addition of the MeBr was done as a gas. Bacterial oxidation of MeBr produced CO2 and hydrobromic acid (HBr) which could be neutralized by addition of NaOH. Strain IMB-1 was capable of sustained oxidation of large amounts of MeBr (16 g in 46 days). […] Oxidation of MeBr was unaffected by the presence of elevated dissolved solutes (>26 g/kg) that approached the salinity of seawater. Strain IMB-1 grown on MeBr was 7 times more efficient at removing MeBr from the headspace of flasks than cultures grown on glucose (55 vs. 8×10^−15 g MeBr/cell/hr, respectively). An open-system bioreactor having 10 L of growing culture used a continuous supply of MeBr (21.2 g/m^3 in air). Growth of strain IMB-1 was continuous and 80 g of MeBr was removed from the air supply in 15 days.
# [5] = tested on: strain IMB-1; test: Open-system bioreactor, 10 L growing culture, continuous supply of MeBr; format: cell-based, strain IMB-1 (ATCC 202197); conditions: in 15 days; 21.2 g/m^3 MeBr in air, 10 L culture
# Text: The bioreactor may be designed to maximize the rate of oxidation of methyl bromide, particularly when using strain IMB-1. For example, without limitation, a twelve (12)-liter fermenter may be used to grow 10-L of cells of IMB-1 in batch culture for flow-through. Preferably, the fermenter is used in continuous-flow mode to grow IMB-1 using 21.2 g/m^3 MeBr as the feedstock. Use of strain 1 IMB-1 in a bioreactor is used in the present invention to directly oxidize various concentrations of the methyl halide, preferably methyl bromide or methyl iodide, for example without limitation high concentrations of approximately 30,000 ppm or 125 g/m^3. Direct oxidation of methyl bromide is most preferred.
# A closed-system bioreactor was built using the general design of FIG. 1 and employed for testing on a laboratory bench. The bioreactor was started with 0.5 L of growing culture of methylotrophic bacteria strain IMB-1 and removed MeBr at fumigation concentrations (>17 g/m^3) from re-circulating air. Strain IMB-1 grew to high cell densities (5×10^9 cells/cm^3) in the bioreactor within several days using pulsed additions of MeBr as the sole carbon and energy source. The addition of the MeBr was done as a gas. Bacterial oxidation of MeBr produced CO2 and hydrobromic acid (HBr) which could be neutralized by addition of NaOH. […]
# [6] = tested on: Bacillus anthracis (anthrax) and its spores; conditions: cited from earlier work
# [7] = 0 cells
# [8] = substrate as electron donor / carbon and energy source
# [9] = 3 × 10^7 cells/cm^3, 0.76 mg MeBr added
# [10] = 3 × 10^7 cells/cm^3, 1.36 mg MeBr added
# [11] = 3 × 10^7 cells/cm^3, 5.30 mg MeBr added
# [12] = 3 × 10^8 cells/cm^3, 0.76 mg MeBr added
# [13] = 3 × 10^8 cells/cm^3, 1.36 mg MeBr added
# [14] = 3 × 10^8 cells/cm^3, 5.30 mg MeBr added
# [15] = 3 × 10^9 cells/cm^3, 0.76 mg MeBr added
# [16] = 3 × 10^9 cells/cm^3, 1.36 mg MeBr added
# [17] = 3 × 10^9 cells/cm^3, 5.30 mg MeBr added
smiles,measurement,setting,value
C [methane],growth of strain IMB-1 on the substrate (in words),[1]; [8],no growth occurred
O=C(O)CCC(=O)O [succinate],growth of strain IMB-1 on the substrate (in words),[1]; [8],no growth occurred
CI [methyl iodide],"rate of MeBr oxidation, normalized for cell densities",[2]; cultures incubated with 2 μmoles Mel,1.4 pmol/10^6 cells/h
same,"rate of MeBr oxidation, normalized for cell densities",[2]; cultures incubated with 5 μmoles Mel,1.1 pmol/10^6 cells/h
same,"rate of MeBr oxidation, normalized for cell densities",[2]; cultures incubated with 8 μmoles Mel,1.1 pmol/10^6 cells/h
same,"rate of MeBr oxidation, normalized for cell densities",[2]; cultures incubated with 10 μmoles Mel,1.4 pmol/10^6 cells/h
same,MeBr oxidized,[2],2.4 pmol/10^6 cells/h
same,growth of strain IMB-1 on the substrate (in words),[1]; [8],Growth was also obtained
O=C(O)CC(O)C(=O)O (stereo not shown) [malate],growth of strain IMB-1 on the substrate (in words),[1]; [8],weak growth
CNC [dimethylamine],growth of strain IMB-1 on the substrate (in words),[1],support growth
CC(=O)O [acetate],growth of strain IMB-1 on the substrate (in words),[1],grows
CO [methanol],growth of strain IMB-1 on the substrate (in words),[1]; [8],no growth occurred
O=C(O)CC(O)(CC(=O)O)C(=O)O [citrate],growth of strain IMB-1 on the substrate (in words),[1]; [8],no growth occurred
CN [monomethylamine],growth of strain IMB-1 on the substrate (in words),[1]; [8],support growth
CF [methyl fluoride],MeBr oxidized,[2],0.0 pmol/10^6 cells/h
same,metabolized by strain IMB-1,[1],not metabolized
same,effect on uptake of MeBr or growth of IMB-1 on MeBr,[1]; 2-22 μmol/tube added,did not affect
same,growth of strain IMB-1 on the substrate (in words),[1]; [8],no growth occurred
CN(C)C [trimethylamine],growth of strain IMB-1 on the substrate (in words),[1]; [8],support growth
O=CO [formate],growth of strain IMB-1 on the substrate (in words),[1],no growth occurred
"CBr [MeBr, methyl bromide]",MeBr oxidized,[2],1.4 pmol/10^6 cells/h
same,time to removal of MeBr,"[3]; 0.76 mg (1.2 mM in the liquid), bottles containing 1.5×10^8 cells",≤ 190 h
same,time to removal of MeBr,"[3]; 0.76 mg, bottles containing 10-fold more cells",≤ 35 h
same,time to removal of MeBr,"[3]; 0.76 mg, bottles containing 100-fold more cells (3×10^9 cells/cm^3)",≤ 2 h
same,time to oxidation of MeBr,"[3]; 1.2 mM in the liquid, cells grown on MeBr (2.8×10^8 cells)",within one hour
same,time to remove a similar amount of MeBr,"[3]; 1.2 mM in the liquid, glucose-grown cells (3.6×10^8 cells)",greater than 5 hours
same,time to removal of MeBr,"[3]; 1.36 mg MeBr, 3×10^9 cells/cm^3",≤ 7 h
same,MeBr Oxidation Rate,[3]; [9],0.063 mg/day
same,MeBr Oxidation Rate Constant,[3]; [9],0.083 per d
same,MeBr Oxidation Rate per Cell,[3]; [9],4.1 ×10^10
same,CO2 Production Rate,[3]; [9],0.031 mg/day
same,MeBr Oxidation Rate,[3]; [10],0 mg/day
same,MeBr Oxidation Rate Constant,[3]; [10],0 per d
same,MeBr Oxidation Rate per Cell,[3]; [10],0 ×10^10
same,CO2 Production Rate,[3]; [10],0.002 mg/day
same,MeBr Oxidation Rate,[3]; [11],0 mg/day
same,MeBr Oxidation Rate Constant,[3]; [11],0 per d
same,MeBr Oxidation Rate per Cell,[3]; [11],0 ×10^10
same,CO2 Production Rate,[3]; [11],0 mg/day
same,MeBr Oxidation Rate,[3]; [12],0.555 mg/day
same,MeBr Oxidation Rate Constant,[3]; [12],0.73 per d
same,MeBr Oxidation Rate per Cell,[3]; [12],3.7 ×10^10
same,CO2 Production Rate,[3]; [12],0.224 mg/day
same,MeBr Oxidation Rate,[3]; [13],0.180 mg/day
same,MeBr Oxidation Rate Constant,[3]; [13],0.13 per d
same,MeBr Oxidation Rate per Cell,[3]; [13],1.2 ×10^10
same,CO2 Production Rate,[3]; [13],0.189 mg/day
same,MeBr Oxidation Rate,[3]; [14],0 mg/day
same,MeBr Oxidation Rate Constant,[3]; [14],0 per d
same,MeBr Oxidation Rate per Cell,[3]; [14],0 ×10^10
same,CO2 Production Rate,[3]; [14],0 mg/day
same,MeBr Oxidation Rate,[3]; [15],6.53 mg/day
same,MeBr Oxidation Rate Constant,[3]; [15],8.6 per d
same,MeBr Oxidation Rate per Cell,[3]; [15],4.4 ×10^10
same,CO2 Production Rate,[3]; [15],5.025 mg/day
same,MeBr Oxidation Rate,[3]; [16],3.52 mg/day
same,MeBr Oxidation Rate Constant,[3]; [16],2.59 per d
same,MeBr Oxidation Rate per Cell,[3]; [16],2.3 ×10^10
same,CO2 Production Rate,[3]; [16],1.990 mg/day
same,MeBr Oxidation Rate,[3]; [17],6.07 mg/day
same,MeBr Oxidation Rate Constant,[3]; [17],1.14 per d
same,MeBr Oxidation Rate per Cell,[3]; [17],4.0 ×10^10
same,CO2 Production Rate,[3]; [17],2.696 mg/day
same,MeBr removal from the headspace of flasks per cell,[3]; cultures grown on glucose,8 ×10^−15 g MeBr/cell/hr
same,MeBr removal from the headspace of flasks per cell,[3]; strain IMB-1 grown on MeBr,55 ×10^−15 g MeBr/cell/hr
same,time to consumption of added MeBr,"[4]; 0.21 g added MeBr, by the third day of operation",≤ 4 h
same,reduction of methyl bromide concentration during a single pass through the filter,[4]; after 2 weeks operation,up to 5 g/m^3
same,time to removal of all added MeBr,[4]; after several equivalent additions of 9 g/m^3 MeBr,approximately 6 hours
same,time to removal of added MeBr,[4]; first addition of 0.21 g MeBr,24 h
same,amount of MeBr oxidized,"[4]; in 46 days, pulses of 0.21 g up to three times a day",16 g and 16.2 g
same,time to oxidation of initial levels of methyl bromide,"[4]; initial 9 g/m^3, washed cell suspensions",≤ 24 h
same,amount of MeBr removed from the air supply,[5],80 g
same,killing of B. anthracis and its spores,[6]; Kolb and Schneiter 1950,kill
same,level at which methyl bromide functions as a microbicide and a pesticide,"[6]; Schade and King 1977, tree nuts","about 25,000 ppm"
same,CO2 Production Rate,[7]; 0.76 mg MeBr added,0 mg/day
same,MeBr Oxidation Rate,[7]; 0.76 mg MeBr added,0.029 mg/day
same,CO2 Production Rate,[7]; 1.36 mg MeBr added,0 mg/day
same,MeBr Oxidation Rate,[7]; 1.36 mg MeBr added,0.062 mg/day
same,CO2 Production Rate,[7]; 5.30 mg MeBr added,0 mg/day
same,MeBr Oxidation Rate,[7]; 5.30 mg MeBr added,0.208 mg/day
same,growth of strain IMB-1 on the substrate (in words),[1]; [8],grow using MeBr as a sole source of carbon and energy
O=C(O)/C=C/C(=O)O [fumarate],growth of strain IMB-1 on the substrate (in words),[1]; [8],no growth occurred
